Each structure is given as a SMILES string. Counter-ions that a name gives are not always drawn.

As usually defined, the melting point is the temperature, or range, at which the solid turns liquid. Consider `CCN(CC)CCOc1ccc(NC(=O)C#Cc2ccc(Cl)cc2Cl)cc1Cl` [Example 4.1, 3-(2,4-dichlorophenyl)propynoic acid-[3-chloro-4-(2-diethylaminoethoxy)phenyl]amide], for which the melting point fell in the range of 98 to 100 °C.
The result for `O=C(CCc1ccc(CN2CC[C@@H](O)C2)cc1)Nc1ccc(-c2ccc(Cl)cc2)cc1` [Example 6.29, N-(4′-chlorobiphenyl-4-yl)-3-[4-((R)-3-hydroxypyrrolidin-1-ylmethyl)phenyl]propionamide] reads 169 to 170 °C; that for `CNC1(c2ccc(C#CC(=O)Nc3ccc(-c4ccc(Cl)cc4)cc3)cc2)CC1` (as salt: trifluoroacetate) [Example 1.423, 3-[4-(1-methylaminocyclopropyl)phenyl]propynoic acid-(4′-chlorobiphenyl-4-yl)amide trifluoroacetate], 217.3 °C; that for `COc1ccc(-c2ccc(NC(=O)C#Cc3ccc(CN4CCC(Nc5ccccn5)CC4)cc3)cc2)cc1` [Example 1.11, 3-{4-[4-(pyridin-2-ylamino)piperidin-1-ylmethyl]phenyl}propynoic acid-(4′-methoxybiphenyl-4-yl)amide], 196 to 197 °C.
To `O=C(CCc1ccc(CNC2CCCCC2)cc1)Nc1ccc(-c2ccc(Cl)cc2)cc1` [Example 6.39, N-(4′-chlorobiphenyl-4-yl)-3-(4-cyclohexylaminomethylphenyl)propionamide] belongs 208 °C.
To `O=C(C#Cc1ccc(CCN2CCCC2)cc1)Nc1ccc(Cl)cc1` [Example 2.2, 3-[4-(2-pyrrolidin-1-ylethyl)phenyl]propynoic acid-4-chlorophenylamide] belongs 153 to 154 °C.
As to `COCCN(Cc1ccc(CCC(=O)Nc2ccc(-c3ccc(Cl)cc3)cc2)cc1)CC(C)(C)O` [Example 6.14, N-(4′-chlorobiphenyl-4-yl)-3-(4-{[(2-hydroxy-2-methylpropyl)-(2-methoxyethyl)amino]methyl}phenyl)propionamide], the melting point lay in the range of 108 to 109 °C.
In turn, `COc1cc(NC(=O)C#Cc2ccc(C(F)(F)F)cc2Cl)ccc1OCCN1CCc2ccccc2C1` (as salt: formate) [Example 4.275, 3-(2-chloro-4-trifluoromethylphenyl)propynoic acid-{4-[2-(3,4-dihydro-1H-isoquinolin-2-yl)ethoxy]-3-methoxyphenyl}amide formate] displayed a melting point of 92 to 95 °C.
To `O=C(C#Cc1ccc(-c2ccc(Cl)cc2)cc1)Nc1ccc(CN2CCC(O)CC2)cc1` [Example 3.18, 3-(4′-chlorobiphenyl-4-yl)propynoic acid-[4-(4-hydroxy-1-piperidin-1-ylmethyl)phenyl]amide] belongs 243 to 247 °C; to `O=C(C#Cc1ccc(CNCCC2CCCCC2)cc1)Nc1ccc(-c2ccc(Cl)cc2)cc1` [Example 1.52, 3-{4-[(cyclohexylethylamino)methyl]phenyl}propynoic acid-(4′-chlorobiphenyl-4-yl)amide], 156 to 157 °C.
Compound `CCN(CC)CCOc1ccc(NC(=O)C#Cc2cccnc2)cc1Cl` [Example 4.285, 3-pyridin-3-ylpropynoic acid-[3-chloro-4-(2-diethylaminoethoxy)phenyl]amide] showed a melting point of 118 to 120 °C.
The result for `CN(Cc1ccc(CCC(=O)Nc2ccc(-c3ccc(Cl)cc3)cc2)cc1)C1CCOCC1` [Example 6.12, N-(4′-chlorobiphenyl-4-yl)-3-(4-{[methyl-(tetrahydropyran-4-yl)amino]methyl}phenyl)propionamide] reads 167 to 173 °C.
To `O=C(/C=C/c1ccc(CN(CCO)C2CCCCC2)cc1)Nc1ccc(-c2ccc(Cl)cc2)cc1` [Example 5.38, (E)-N-(4′-chlorobiphenyl-4-yl)-3-(4-{[cyclohexyl-(2-hydroxyethyl)amino]methyl}phenyl)acrylamide] belongs 178 to 179 °C; to `CC1CN(Cc2ccc(/C=C/C(=O)Nc3ccc(-c4ccc(Cl)cc4)cc3)cc2)CC(C)O1` (centres unmarked) [Example 5.23, (E)-N-(4′-chlorobiphenyl-4-yl)-3-[4-(2,6-dimethylmorpholin-4-ylmethyl)phenyl]acrylamide], 212 to 213 °C; to `O=C(C#Cc1ccc(-c2ccccc2)cc1Cl)Nc1ccc(CN2CCCCC2)cc1` (as salt: hydrochloride) [Example 3.33, 3-(3-chlorobiphenyl-4-yl)propynoic acid-(4-piperidin-1-ylmethylphenyl)amide hydrochloride], 260 to 265 °C.
The result for `COc1cc(NC(=O)C#Cc2ccc(C(F)(F)F)cc2Cl)ccc1OCCN1CCC(C(N)=O)CC1` [Example 4.276, 1-(2-{4-[3-(2-chloro-4-trifluoromethylphenyl)propynoylamino]-2-methoxyphenoxy}ethyl)piperidine-4-carboxylic acid amide] reads 150 °C.
`O=C(/C=C/c1ccc(CN2CCC(N3CCCCC3)C2)cc1)Nc1ccc(-c2ccc(Cl)cc2)cc1` (centres unmarked) [Example 5.28, (E)-N-(4′-chlorobiphenyl-4-yl)-3-[4-(3-piperidin-1-ylpyrrolidin-1-ylmethyl)phenyl]acrylamide]: the melting point is 209 to 210 °C.
The result for `O=C(CCc1ccc(CN2CCC(CO)CC2)cc1)Nc1ccc(-c2ccc(Cl)cc2)cc1` [Example 6.6, N-(4′-chlorobiphenyl-4-yl)-3-[4-(4-hydroxymethylpiperidin-1-ylmethyl)phenyl]propionamide] reads 185 to 186 °C.
The result for `CCN(CC)CCc1ccc(NC(=O)C#Cc2ccc(Cl)cc2Cl)cc1` (as salt: hydrochloride) [Example 3.34, 3-(2,4-dichlorophenyl)propynoic acid-[4-(2-diethylaminoethyl)phenyl]amide hydrochloride] reads 204 to 208 °C; that for `CCN(CC)CCOc1ccc(NC(=O)C#Cc2ccc(Cl)cc2Cl)c(Cl)c1` (as salt: hydrochloride) [Example 4.8, 3-(2,4-dichlorophenyl)propynoic acid-[2-chloro-4-(2-diethylaminoethoxy)phenyl]amide], 128 to 130 °C.
In the case of `O=C(C#Cc1ccc(CN2CCCCC2)cc1)Nc1ccc(-c2ccc(Cl)cc2)cc1` [Example 1.39, 3-(4-piperidin-1-ylemthylphenyl)propynoic acid-(4′-chlorobiphenyl-4-yl)amide], the melting point amounted to 179.5 °C.
To `CCN(CC)CCc1ccc(NC(=O)C#Cc2ccc(C(F)(F)F)cc2Cl)cc1` [Example 3.35, 3-(2-chloro-4-trifluoromethylphenyl)propynoic acid-[4-(2-diethylaminoethyl)phenyl]amide] belongs 145 to 150 °C.
In turn, `NC1(c2ccc(C#CC(=O)Nc3ccc(-c4ccc(Cl)cc4)cc3)cc2)CC1` (as salt: trifluoroacetate) [Example 1.422, 3-[4-(1-aminocyclopropyl)phenyl]propynoic acid-(4′-chlorobiphenyl-4-yl)amide trifluoroacetate] displayed a melting point of 160 to 164 °C.
The result for `CN(Cc1ccccc1)Cc1ccc(CCC(=O)Nc2ccc(-c3ccc(Cl)cc3)cc2)cc1` [Example 6.18, 3-{4-[(benzylmethylamino)methyl]phenyl}-N-(4′-chlorobiphenyl-4-yl)propionamide] reads 174 to 175 °C.
To `CN(Cc1ccc(/C=C/C(=O)Nc2ccc(-c3ccc(Cl)cc3)cc2)cc1)C1CCOCC1` [Example 5.7, (E)-N-(4′-chlorobiphenyl-4-yl)-3-(4-{[methyl-(tetrahydropyran-4-yl)amino]methyl}phenyl)acrylamide] belongs 196 to 197 °C; to `CN(Cc1ccc(C#CC(=O)Nc2ccc(-c3ccc(Cl)cc3)cc2)cc1)CC1CC1` [Example 1.40], 181 °C.
To `O=C(CCc1ccc(CNC2CCCC2)cc1)Nc1ccc(-c2ccc(Cl)cc2)cc1` [Example 6.41, N-(4′-chlorobiphenyl-4-yl)-3-(4-cyclopentylaminomethylphenyl)propionamide] belongs 196 to 197 °C; to `O=C(C#Cc1ccc(Cl)cc1Cl)Nc1ccc2oc(CCN3CCCC3)nc2c1` [Example 4.12, 3-(2,4-dichlorophenyl)propynoic acid-[2-(2-pyrrolidin-1-ylethyl)benzoxazol-5-yl]amide], 130 °C.
For `CN(Cc1ccc(CCC(=O)Nc2ccc(-c3ccc(Cl)cc3)cc2)cc1)Cc1cccnc1` [Example 6.33, N-(4′-chlorobiphenyl-4-yl)-3-{4-[(methylpyridin-3-ylmethylamino)methyl]phenyl}propionamide], the melting point fell in the range of 168 to 169 °C.
To `CN(C(=O)CCc1ccc(CN2CCC3(CCCC3)CC2)cc1)c1ccc(-c2ccc(Cl)cc2)cc1` [Example 6.45, 3-[4-(8-azaspiro[4.5]dec-8-ylmethyl)phenyl]-N-(4′-chlorobiphenyl-4-yl)-N-methylpropionamide] belongs 119 °C; to `O=C(C#Cc1ccc(-c2ccc(Cl)cc2)cc1)Nc1ccc(CN2CCC(O)(C(F)(F)F)CC2)cc1` [Example 3.17, 3-(4′-chlorobiphenyl-4-yl)propynoic acid-[4-(4-hydroxy-4-trifluoromethylpiperidin-1-ylmethyl)phenyl]amide], 194 to 200 °C; to `O=C(C#Cc1ccc(-c2ccc(Cl)cc2)cc1)Nc1ccc2c(ccn2CCN2CCCC2)c1` [Example 3.19, 3-(4′-chlorobiphenyl-4-yl)propynoic acid-[1-(2-pyrrolidin-1-ylethyl)-1H-indol-5-yl]amide], 224 to 227 °C.
To `COCCN(C)Cc1ccc(/C=C/C(=O)Nc2ccc(-c3ccc(Cl)cc3)cc2)cc1` [Example 5.14] belongs 222 to 223 °C; to `O=C(C#Cc1ccc(CN2CCCC2)cc1)Nc1ccc(-c2ccc(Cl)cc2)cc1F` [Example 1.17, 3-(4-pyrrolidin-1-ylmethylphenyl)propynoic acid-(4′-chloro-3-fluorobiphenyl-4-yl)amide], 136 °C.
The compound `CC1CCN(Cc2ccc(CCC(=O)Nc3ccc(-c4ccc(Cl)cc4)cc3)cc2)CC1` [Example 6.2, N-(4′-chlorobiphenyl-4-yl)-3-[4-(4-methylpiperidin-1-ylmethyl)phenyl]propionamide] displayed a melting point of 150 to 151 °C.

For the origin of these results see patent publication US7592373B2 (Boehringer Ingelheim International GmbH, priority 2003, dated 2009).
